Measured values published in patent US20250152584A1, “NLRP3 INFLAMMASOME INHIBITOR AND USES THEREOF” (TransThera Sciences (Nanjing), Inc., priority 2022, published 2025).

How the values were obtained:
[1] = Pharmacokinetic study in beagles; type: in vivo; settings: beagle, dog, plasma, male beagles; for Cmax: read-out: Cmax po (peak concentration); for Tmax: read-out: Tmax po (peak time of plasma concentration); for clearance: read-out: Cl—obs iv (clearance rate) (converted); for Vd: read-out: Vss iv (volume of distribution); for bioavailability: iv 1.0 mg/kg / po 1.0 mg/kg, read-out: F % (absolute bioavailability)
Experimental: Experimental Example 4: Pharmacokinetic Study of Compounds in Beagles
Compound 174 was prepared into a solution with a mixed solvent formulated from 5% dimethyl sulfoxide, 20% (30% solutol) and 75% normal saline; the solution of this compound was administered to male beagles by gavage at a dose of 1.0 mg/kg; and the time points for blood collection were: 15 min, 30 min, 1 b, 2 h, 4 h, 6 b, 8 h, 10 h and 24 h. The solution of the compound was administered to male beagles by intravenous bolus at a dose of 1.0 mg/kg, and the time points for blood collection were as follows: 5 min, 15 min, 30 min, 1 h, 2 h, 4 h, 6 h, 8 h, 10 h, and 24 h.
Compound 177 and Compound 195 were prepared into solutions with a mixed solvent formulated from 5% dimethyl sulfoxide, 20% (30% solutol) and 75% normal saline, respectively; the solutions of these compounds were administered to male beagles by gavage at a dose of 1.0 mg/kg; and the time points for blood collection were: 15 min, 30 min, 1 h, 2 h, 4 h, 6 h, 8 h, 10 h and 24 h. The solution of the compound was administered to male beagles by intravenous bolus at a dose of 1.0 mg/kg, and the time points for blood collection were as follows: 5 min, 15 min, 30 min, 1 h, 2 h, 4 h, 6 h, 8 h, 10 h, and 24 h.
Approximately 400 μL of blood was collected through the medial cephalic vein of the forelimb and placed in an anticoagulant tube containing EDTA-K2. Blood samples were centrifuged at 12,000 rpm for 10 min at 4° C. to obtain plasma samples, and plasma was prepared within 30 min after blood collection. The plasma was stored in a −80° C. freezer before testing.

[2] = Pharmacokinetic study in C57BL/6J mice; type: in vivo; settings: mouse, plasma, C57BL/6J female mice
Experimental: Experimental Example 2: Pharmacokinetic Study of Compounds in C57BL/6J Mice
Compound 100, Compound 54, Compound 174, Compound 179, and Compound 253 were prepared into solutions with a mixed solvent formulated from 5% dimethyl sulfoxide, 20% (30% solutol) and 75% normal saline, respectively; the solution of each compound was administered to C57BL/6J female mice by gavage at a dose of 10 mg/kg; and the time points for blood collection were: 15 min, 30 min, 1 h, 2 h, 4 h, 6 h, 8 h and 24 h. The solution of the compound was administered to C57BL/6J female mice by intravenous bolus at a dose of 5 mg/kg, and the time points for blood collection were as follows: 5 min, 15 min, 30 min, 1 h, 2 h, 4 h, 6 h, 8 h, and 24 h.
Compound 1 was prepared into a solution with a mixed solvent formulated from 5% DME, 20% (30% solutol) and 75% normal saline; the solution of this compound was administered to C57BL/6J female mice by gavage at a dose of 10 mg/kg, and the time points for blood collection were: 15 min, 30 min, 1 h, 2 h, 4 h, 6 h, 8 h, and 24 h. The solution of the compound was administered to C57BL/6J female mice by intravenous bolus at a dose of 5 mg/kg, and the time points for blood collection were as follows: 5 min, 15 min, 30 min, 1 h, 2 h, 4 h, 6 h, 8 h, and 24 h.
Compound 195 was prepared into a solution with a mixed solvent formulated from 5% dimethyl sulfoxide, 20% PEG400 and 75% normal saline; the solution of this compound was administered to C57BL/6J female mice by gavage at a dose of 10 mg/kg; and the time points for blood collection were 15 min, 30 min, 1 h, 2 h, 4 h, 6 h, 8 h, and 24 b. The solution of the compound was administered to C57BL/6J female mice by intravenous bolus at a dose of 5 mg/kg, and the time points for blood collection were as follows: 5 min, 15 min, 30 min, 1 h, 2 b, 4 h, 6 h, 8 h, and 24 h.
Approximately 100 μL of blood was collected through the retroorbital venous plexus, and was then placed in an anticoagulant tube containing EDTA-K2. Blood samples were centrifuged at 12,000 rpm for 10 min at 4° C. to obtain plasma samples, and plasma was prepared within 30 min after blood collection. The plasma was stored in a −80° C. freezer before testing.
• 1. The samples were taken from the −80° C. freezer, thawed naturally at room temperature, and then vortexed for 5 min • 2. 10 μL of a plasma sample was precisely pipetted from different individuals into a 1.5 mL centrifuge tube. • 3. 300 μL of an internal standard working solution (the acetonitrile solution of tolbutamide) at a concentration of […] was added and mixed well. • 4. After vortexing for 5 min, the mixture was centrifuged at 12,000 rpm for 5 min. • 5. 50 μL of the supernatant was accurately pipetted into a 96-well plate preloaded with water at 150 μL/well. • 6. Vortexing was performed for 5 min for sufficient mixing, and LC-MS/MS analysis was then conducted.
The results of the concentrations of the compounds under test were output using Analyst 1.6.3 of AB. Parameters such as mean, standard deviation, coefficient of variation was calculated by Microsoft Excel (parameters directly output by Analyst 1.6.3 needed no calculation), and PK parameters were calculated by WinNonlin Phenoix 8.2 software NCA (Tmax as the median).

[3] = po, gavage 1.0 mg/kg, read-out: AUClast po (area under the drug-time curve for 0-24 h)
[4] = po, gavage 1.0 mg/kg, read-out: tz1/2 po (terminal elimination half-life) (converted)
[5] = intravenous bolus 1.0 mg/kg, read-out: AUClast iv (area under the drug-time curve for 0-24 h)
[6] = intravenous bolus 1.0 mg/kg, read-out: tz1/2 iv (terminal elimination half-life) (converted)

AUC(0-t) [1, 3] [ng·h/mL]	Cmax ([1]; po, gavage 1.0 mg/kg) [ng/mL]	Tmax ([1]; po, gavage 1.0 mg/kg) [h]	half-life [1, 4] [h]	AUC(0-t) [1, 5] [ng·h/mL]	clearance ([1]; intravenous bolus 1.0 mg/kg) [mL/min/kg]	Vd ([1]; intravenous bolus 1.0 mg/kg) [L/kg]	half-life [1, 6] [h]	bioavailability [1] [%]	Tmax ([2]; po, gavage 10 mg/kg, median, read-out: Tmax po (peak time of plasma concentration)) [h]	AUC(0-t) ([2]; po, gavage 10 mg/kg, read-out: AUClast po (area under the drug-time curve for 0-24 h)) [ng·h/mL]	Cmax ([2]; po, gavage 10 mg/kg, read-out: Cmax po (peak concentration)) [ng/mL]	half-life ([2]; po, gavage 10 mg/kg, read-out: tz1/2 po (terminal elimination half-life) (converted)) [h]	AUC(0-t) ([2]; intravenous bolus 5 mg/kg, read-out: AUClast iv (area under the drug-time curve for 0-24 h)) [ng·h/mL]	clearance ([2]; intravenous bolus 5 mg/kg, read-out: Cl—obs iv (clearance rate) (converted)) [mL/min/kg]	Vd ([2]; intravenous bolus 5 mg/kg, read-out: Vss iv (volume of distribution)) [L/kg]	half-life ([2]; intravenous bolus 5 mg/kg, read-out: tz1/2 iv (terminal elimination half-life) (converted)) [h]	bioavailability ([2]; iv 5 mg/kg / po 10 mg/kg, read-out: F % (absolute bioavailability)) [%]	SMILES
1920	293	1	5.9	1240	13	5.53	5.58	154										C#Cc1ccc(-c2nnc(N[C@@H]3CCCN(C)C3)nc2C)c(O)c1 [Compound 177]
1900	206	4	11	2320	6.58	3.74	8.16	90.7	1	7860	1230	3.12	3580	23.2	5.14	3.89	110	CC#Cc1ccc(-c2nnc(N[C@@H]3CCCN(C)C3)nc2C)c(O)c1 [Compound 195]
